Test results from PMC9328650 (British Journal of Pharmacology, 2021).

Legend:
thioredoxin (TRX) = biological target: T1, thioredoxin (TRX) (Homo sapiens, UniProt P10599); assay: Insulin turbidity assay, thioredoxin; assay type: biochemical; conditions: for Effect on enzyme activity of thioredoxin: 300 μM, highest concentration tested
T1 sequence (P10599 1-105): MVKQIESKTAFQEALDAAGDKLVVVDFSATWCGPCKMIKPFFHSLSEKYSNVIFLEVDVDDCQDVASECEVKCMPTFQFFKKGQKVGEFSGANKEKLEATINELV
Description: (§1) Initial compound library screening was performed in an insulin turbidity assay adapted for high‐throughput screening (Holmgren, [1979]; Smith et al., [2004]). The reduction of the disulphide bond in insulin by a thiol isomerase results in the separation of the A and B chains and precipitation, which is measured by spectrophotometry at a wavelength of 650 nm. Using Corning 3891 well plates (with a final volume of 10 μl), a final concentration of 10 μg·ml^−1 of ERp57, 125‐μM insulin and 2‐mM EDTA in potassium phosphate buffer (100 mM) was added to each experimental well. Bacitracin (3 mM) was added to select wells as a positive control and vehicle plates served as a negative control. Experimental compounds were pin transferred to the wells at a final concentration of 30 μM and plates shaken. After incubation for 10 min, 0.3‐mM DTT was added to propagate enzyme activity. Following reaction for 1 hr at 37°C, plates were read using a PerkinElmer Envision plate reader (PerkinElmer, Waltham, MA). All compounds were tested in duplicate at the ICCB‐Longwood Screening Facility at Harvard Medical School.
(§2) Lead compounds were diluted in a 6‐point dose curve (concentrations depending on the observed effects in the initial screen) and insulin turbidity was measured kinetically each minute for 75 min using a Spectramax M3 microplate reader (Molecular Devices, Sunnyvale, CA). Specificity assay also utilised the insulin turbidity assay to determine specificity of inhibition; ERp57 was replaced with PDI (10 μg·ml^−1), ERp5 (30 μg·ml^−1), ERp72 (10 μg·ml^−1) or thioredoxin (10 μg·ml^−1), to determine the ability of lead compounds to inhibit these enzymes.
(§3) A total of 3,641 compounds were screened for inhibitory effects on the redox activity of ERp5, protein disulphide isomerase (PDI), ERp57, ERp72 and thioredoxin (TRX), all assayed at 10 μg·ml^−1 except ERp5 which was assayed at 30 μg·ml^−1. ZFL was selected for further investigation. […] (a) Enzyme assays performed in the absence of enzyme with drug only.

PDI = PDI (Homo sapiens, UniProt P07237); assay: Insulin turbidity assay, PDI; assay type: biochemical; conditions: for Effect on enzyme activity of PDI: 300 μM, highest concentration tested
PDI, sequence (P07237 18-508, species assumed): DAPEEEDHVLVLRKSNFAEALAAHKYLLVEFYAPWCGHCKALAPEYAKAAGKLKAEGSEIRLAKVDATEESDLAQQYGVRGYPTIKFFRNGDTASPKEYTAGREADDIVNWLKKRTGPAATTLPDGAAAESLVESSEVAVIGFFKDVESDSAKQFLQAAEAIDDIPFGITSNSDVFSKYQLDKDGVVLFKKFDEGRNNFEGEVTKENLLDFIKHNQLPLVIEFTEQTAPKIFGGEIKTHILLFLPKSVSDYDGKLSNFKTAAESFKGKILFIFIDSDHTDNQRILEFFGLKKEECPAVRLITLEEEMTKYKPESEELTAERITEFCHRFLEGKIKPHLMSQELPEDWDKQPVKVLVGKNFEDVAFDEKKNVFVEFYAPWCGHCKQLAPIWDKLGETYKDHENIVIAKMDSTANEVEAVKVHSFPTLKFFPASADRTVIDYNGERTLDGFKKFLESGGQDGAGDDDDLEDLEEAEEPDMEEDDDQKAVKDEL
Description: as §1, §2, §3

ERp57 = biological target: T2, ERp57 (Homo sapiens, UniProt P30101); assay: Insulin turbidity assay, ERp57; assay type: biochemical; conditions: for Effect on enzyme activity of ERp57: 300 μM, highest concentration tested
T2 sequence (P30101 25-505): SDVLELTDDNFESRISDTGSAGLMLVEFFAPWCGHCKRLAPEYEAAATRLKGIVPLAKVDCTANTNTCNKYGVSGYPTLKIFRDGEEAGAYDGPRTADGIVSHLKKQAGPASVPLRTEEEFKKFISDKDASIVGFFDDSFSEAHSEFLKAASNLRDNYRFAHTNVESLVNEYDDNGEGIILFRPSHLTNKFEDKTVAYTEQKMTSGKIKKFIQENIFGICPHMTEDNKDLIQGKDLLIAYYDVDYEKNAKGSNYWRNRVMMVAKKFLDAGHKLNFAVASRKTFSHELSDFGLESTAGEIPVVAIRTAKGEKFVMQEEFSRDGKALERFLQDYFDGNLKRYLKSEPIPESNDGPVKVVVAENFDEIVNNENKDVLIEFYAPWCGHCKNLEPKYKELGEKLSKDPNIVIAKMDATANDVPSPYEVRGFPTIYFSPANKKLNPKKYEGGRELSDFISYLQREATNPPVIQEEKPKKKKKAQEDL
Description: as §1, §2, §3

[1] = parameters: method as in Fischer et al., [2000]; conditions: oral 20 mg twice daily; ref Fischer et al., [2000]; cited from earlier work
HEK293T cells [2] = assay: Cell migration scratch assay, HEK293T; assay type: cell-based, human; conditions: 20 μM, 40 hr
Description: (§4) MDA‐MB‐231 (ATCC Cat# HTB‐26, RRID:CVCL_0062) or HEK293T (ATCC Cat# CRL‐3216, RRID:CVCL_0063) were seeded into wells of a 12‐well plate (fibronectin coated, 10 μg·ml^−1) and grown to confluence in DMEM supplemented with 10% (v/v) FBS and 1% (v/v) penicillin–streptomycin. Following aspiration of media, a vertical scratch was performed to bisect the well and detached cells were removed by PBS washes. […] Images were analysed using Zeiss Axiovision software, and closure areas calculated using Fiji ImageJ. At 37/40 hr post‐scratch, cells were fixed in 4% (v/v) paraformaldehyde for 20 min and permeabilised with 0.2% (v/v) Triton X‐100 for 10 min. Cells were stained with phalloidin‐568 (dilution of 1:250, in PBS) for 1 hr and following washes, counterstained with DAPI (1:1,000) for 20 min. Cells were washed in PBS and mounted using Vectashield H‐1000.

MDA-MB-231 cells [3] = assay: Cell migration scratch assay, MDA-MB-231; assay type: cell-based, human; conditions: 20 μM, 37 hr
Description: as §4

[4] = system: haemostasis (bleeding time); assay: Tail bleeding assay; assay type: in vivo, mouse; conditions: 20 μM circulating concentration, femoral vein, 5 min before tail biopsy, n = 10; vehicle 225 s ± 28 s; not significant
Description: (§5) Male C57BL/6J mice (RRID:IMSR_JAX:000664 bred in house, at age 4–5 weeks with a weight range of 19–25 g) were anaesthetised by intraperitoneal injection of ketamine (125 mg·kg^−1), xylazine (12.5 mg·kg^−1) and atropine (0.25 mg·kg^−1). Platelets were labelled by intravenous infusion of DyLight 649‐conjugated anti‐GPIb platelet labelling antibody (0.2 μg·g^−1 body weight). […] Thrombi were observed using an Olympus BX microscope (Olympus, Essex, UK) and a Hamamatsu (Hamamatsu Photonics, Hertfordshire, UK) CCD camera and data analysed using Slidebook Software version 5.0 (Intelligent Imaging Innovations, Denver, USA) (Falati et al., [2006]; Holbrook et al., [2018]; Holbrook et al., [2012]). Mice were killed using Schedule 1 approved methods at the end of the experiment. […] Time to bleeding cessation was recorded. […] Animal experiments were approved by the University of Reading Local Ethical Review Panel and authorised by the UK Home Office. […]
(§6) Following laser injury, images were recorded for 5 min. […] Graphs represent mean ± SEM, n = 10 per treatment; data were analysed by Student's t‐test, *P < 0.05

thrombus formation = assay: Laser injury arterial thrombus formation, cremaster muscle arterioles, intravital microscopy; assay type: in vivo, mouse; conditions: 20 μM circulating concentration, i.v., male C57BL/6J mice, n = 12 thrombi
Description: as §5, §6

ERp72 = biological target: T3, ERp72 (Homo sapiens, UniProt P13667); assay: Insulin turbidity assay, ERp72; assay type: biochemical; conditions: ERp72 10 μg·ml^−1, 650 nm, 37°C
T3 sequence (P13667 21-645): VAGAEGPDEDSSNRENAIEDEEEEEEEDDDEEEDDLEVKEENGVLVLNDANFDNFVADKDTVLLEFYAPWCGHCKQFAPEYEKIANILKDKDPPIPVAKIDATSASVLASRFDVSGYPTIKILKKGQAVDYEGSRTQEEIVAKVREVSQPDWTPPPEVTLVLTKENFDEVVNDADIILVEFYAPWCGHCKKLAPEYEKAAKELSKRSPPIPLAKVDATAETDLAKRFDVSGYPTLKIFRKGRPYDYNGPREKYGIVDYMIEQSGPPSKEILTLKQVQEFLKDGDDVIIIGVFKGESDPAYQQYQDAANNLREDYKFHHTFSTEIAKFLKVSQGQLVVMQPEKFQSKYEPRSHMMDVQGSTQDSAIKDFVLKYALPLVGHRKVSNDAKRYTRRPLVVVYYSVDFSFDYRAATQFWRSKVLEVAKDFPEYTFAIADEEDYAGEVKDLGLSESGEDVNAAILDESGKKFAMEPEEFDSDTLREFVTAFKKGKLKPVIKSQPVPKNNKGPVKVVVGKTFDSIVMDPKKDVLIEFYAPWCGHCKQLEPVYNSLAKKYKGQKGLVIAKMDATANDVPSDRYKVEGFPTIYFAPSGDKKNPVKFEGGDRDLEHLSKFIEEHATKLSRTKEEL
Description: as §1
(§7) Lead compounds were diluted in a 6‐point dose curve (concentrations depending on the observed effects in the initial screen) and insulin turbidity was measured kinetically each minute for 75 min using a Spectramax M3 microplate reader (Molecular Devices, Sunnyvale, CA). […]

[5] = system: MDA-MB-231 cell-surface free thiols; assay: Cell-surface free thiol labelling with MPB, MDA-MB-231; assay type: cell-based, human; conditions: 20 μM, vs vehicle
Description: (§8) MDA‐MB‐231 or HEK293T cells were cultured and treated as described before. Four hours post‐treatment, cells were washed with PBS, and free thiols labelled by incubation with MPB (100 μM) for 20 min. Free label was removed by multiple PBS washes, and cells were lysed in reducing sample treatment buffer for SDS‐PAGE analysis. Thiol labelling was detected using streptavidin‐HRP conjugate (1:10,000 dilution in 5% [w/v] BSA/TBS‐T), and chemiluminescence captured following the addition of ECL substrate.

MDA-MB-231 cells [6] = assay: 3-day growth inhibition (proliferation) assay, MDA-MB-231; assay type: cell-based, human; conditions: 72 hr
Description: (§9) MDA‐MB‐231 or HEK293T cells were seeded at a density of 2.5 × 10^5 cells per well in a six‐well cell culture plate and grown for 24 hr. […] Following drug treatment, wells were washed and cells manually counted by haemocytometer or automatically using a Coulter counter (Beckman Coulter, CA, USA). Cell growth inhibition was calculated by comparing the counts of drug treated cells with untreated (control) cells as described previously (Kennedy et al., [2007]).

HEK293T cells [7] = assay: Proliferation assay, HEK293T; assay type: cell-based, human; conditions: 1–30 μM, 72 hr
Description: as §9

ERp5 = biological target: T4, ERp5 (Homo sapiens, UniProt Q15084); assay: Insulin turbidity assay, ERp5; assay type: biochemical; conditions: ERp5 30 μg·ml^−1, 650 nm, 37°C
T4 sequence (Q15084 20-440): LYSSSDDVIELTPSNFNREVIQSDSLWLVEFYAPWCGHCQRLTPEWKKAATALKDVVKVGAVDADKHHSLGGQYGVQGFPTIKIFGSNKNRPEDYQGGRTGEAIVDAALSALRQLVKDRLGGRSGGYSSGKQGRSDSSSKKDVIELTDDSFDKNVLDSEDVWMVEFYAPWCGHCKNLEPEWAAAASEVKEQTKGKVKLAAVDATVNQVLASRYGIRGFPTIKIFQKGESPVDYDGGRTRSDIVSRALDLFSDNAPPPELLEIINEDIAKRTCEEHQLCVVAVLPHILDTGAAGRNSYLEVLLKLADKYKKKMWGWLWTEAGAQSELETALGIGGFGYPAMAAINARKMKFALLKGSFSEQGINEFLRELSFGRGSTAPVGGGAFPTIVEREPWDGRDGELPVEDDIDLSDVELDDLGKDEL
Description: as §1, §7

[8] = system: HEK293T cell-surface free thiols; assay: Cell-surface free thiol labelling with MPB, HEK293T; assay type: cell-based, human; conditions: 20 μM, vs vehicle
Description: as §8

CC(C)(O)c1ccccc1CC[C@@H](SCC1(CC(=O)O)CC1)c1cccc(/C=C/c2ccc3ccc(Cl)cc3n2)c1 [montelukast]
Effect on enzyme activity of thioredoxin (thioredoxin (TRX)): almost entirely ablate | Effect on enzyme activity of PDI (PDI): almost entirely ablate | Effect on enzyme activity of ERp57 (ERp57): almost entirely ablate

COc1cc(C(=O)NS(=O)(=O)c2ccccc2C)ccc1Cc1cn(C)c2ccc(NC(=O)OC3CCCC3)cc12 [zafirlukast]
Peak plasma concentration (cMax) [1]: 697 ng/mL | Peak plasma concentration, equivalent [1]: 1.2 µM | Time of peak plasma concentration [1]: 3 h | Closure area at endpoint (HEK293T cells [2]; vehicle 80,686 [±15,705]): 1,475,154 [±81,061] | Scratch area coverage (migration) at endpoint (HEK293T cells [2]; vehicle over 96%): 32% | Closure area at endpoint (MDA-MB-231 cells [3]; vehicle 62,163 ± 23,552): 243,707 ± 51,057 | Scratch area covered at endpoint (MDA-MB-231 cells [3]; vehicle over 86%): 56% | Bleeding time [4]: 243 s | Effect on enzyme activity of thioredoxin (thioredoxin (TRX)): almost entirely ablate | Inhibition of thioredoxin (TRX) activity, concentration dependence (thioredoxin (TRX); TRX 10 μg·ml^−1, 650 nm, 37°C): concentration dependently inhibits | Effect on enzyme activity of PDI (PDI): almost entirely ablate | Inhibition of PDI activity, concentration dependence (PDI; PDI 10 μg·ml^−1, 650 nm, 37°C): concentration dependently inhibits | Effect on enzyme activity of ERp57 (ERp57): almost entirely ablate | Inhibition of ERp57 activity, concentration dependence (ERp57; ERp57 10 μg·ml^−1, 650 nm, 37°C): concentration dependently inhibits | Thrombus size (maximum fluorescence intensity) (thrombus formation): significantly impaired | Inhibition of ERp72 activity, concentration dependence (ERp72): concentration dependently inhibits | Reduction of surface free thiol (MPB) labelling [5]: 42% | Effect on cell proliferation (MDA-MB-231 cells [6]; 20 μM): minimal effect | Reduction of proliferation (MDA-MB-231 cells [6]; 30 μM): around 20% | Impairment of cell proliferation (HEK293T cells [7]): not detected | Inhibition of ERp5 activity, concentration dependence (ERp5): concentration dependently inhibits | Decrease of surface MPB labelling [8]: 47%
